From patent US20030225044A1, “Method to increase serum levels of vitamins in animals including humans” (priority 2002, published 2003) come the findings set out here.

A short description of data set [1]: Serum Vitamin A after nasal administration or drench (Example V). The format is in vivo, beef steers. The protocol: (§1) These five treatments were:
(§2) Treatments were applied and cattle were bled via jugular venipuncture at 0, 6, and 24 hours post-dosing.

Data set [2] in a line: Serum Vitamin E after nasal administration or drench (Example VI). The format is in vivo, beef steers. On the procedure:
as §1, §2

Take Vitamin A: the “Average Serum Levels-Vitamin A” value turned out to be 277 ng/mL in data set [1] (Treatment 2: positive control, 15 ml drench, 1,000,000 IU Vitamin A in 15 ml water, 6 Hours); 247 ng/mL in data set [1] (Treatment 2: positive control, 15 ml drench, 1,000,000 IU Vitamin A in 15 ml water, 24 Hours); 230 ng/mL in data set [1] (Treatment 2: positive control, 15 ml drench, 1,000,000 IU Vitamin A in 15 ml water, time 0); 344 ng/mL in data set [1] (Treatment 3: solid form vitamins in 2 ml ethanol, 1,000,000 IU A, 100,000 IU D, 1000 IU B, 1 ml per nostril, 6 Hours); 326 ng/mL in data set [1] (Treatment 3: solid form vitamins in 2 ml ethanol, 1,000,000 IU A, 100,000 IU D, 1000 IU B, 1 ml per nostril, 24 Hours); 302 ng/mL in data set [1] (Treatment 3: solid form vitamins in 2 ml ethanol, 1,000,000 IU A, 100,000 IU D, 1000 IU B, 1 ml per nostril, time 0). Moreover, the “Average Serum Levels-Vitamin A” value in data set [1] (Treatment 4: vitamin E, A, D oils, Tween 80, nicotinic acid, Carbopol 934P, Pemulen TR2, NaOH, water, 1,000,000 IU A, 1 ml per nostril, 6 Hours) was 314 ng/mL; in data set [1] (Treatment 4: vitamin E, A, D oils, Tween 80, nicotinic acid, Carbopol 934P, Pemulen TR2, NaOH, water, 1,000,000 IU A, 1 ml per nostril, 24 Hours), 321 ng/mL; in data set [1] (Treatment 4: vitamin E, A, D oils, Tween 80, nicotinic acid, Carbopol 934P, Pemulen TR2, NaOH, water, 1,000,000 IU A, 1 ml per nostril, time 0) it was 321 ng/mL; in data set [1] (Treatment 5: vitamin E, A, D oils, Tween 80, Carbopol TR2, NaOH, water, 1,000,000 IU A, 1 ml per nostril, 6 Hours), 349 ng/mL; in data set [1] (Treatment 5: vitamin E, A, D oils, Tween 80, Carbopol TR2, NaOH, water, 1,000,000 IU A, 1 ml per nostril, 24 Hours), 353 ng/mL; in data set [1] (Treatment 5: vitamin E, A, D oils, Tween 80, Carbopol TR2, NaOH, water, 1,000,000 IU A, 1 ml per nostril, time 0) it was 343 ng/mL. Further, the “course of serum level of Vitamin A” value in data set [1] (Treatment #3: nasal administration of Vitamin A/ethanol solution (FIG. 8, curve 810)) is “decreased from 6 to 24 hours post-dosing after an initial increase in the first 6 hours”; in data set [1] (Treatment #4, nasal (FIG. 8, curve 830)), “increased continuously from 6 hours to 24 hours post-dosing”; in data set [1] (Treatment #5, nasal (FIG. 8, curve 820)), “increased from 0 hours to 24 hours post-dosing”.
Turning to Vitamin E, the “Average Serum Level - Vitamin E” value is 1.8 micrograms/ml in data set [2] (Treatment 2: positive control, 15 ml drench, 1200 IU Vitamin E in 15 ml water, 6 Hours); 2.0 micrograms/ml in data set [2] (Treatment 2: positive control, 15 ml drench, 1200 IU Vitamin E in 15 ml water, 24 Hours); 1.8 micrograms/ml in data set [2] (Treatment 2: positive control, 15 ml drench, 1200 IU Vitamin E in 15 ml water, time 0); 2.7 micrograms/ml in data set [2] (Treatment 3: solid form vitamins in 2 ml ethanol, 1,000,000 IU A, 100,000 IU D, 1000 IU E, 1 ml per nostril, 6 Hours); 2.8 micrograms/ml in data set [2] (Treatment 3: solid form vitamins in 2 ml ethanol, 1,000,000 IU A, 100,000 IU D, 1000 IU E, 1 ml per nostril, 24 Hours); 2.7 micrograms/ml in data set [2] (Treatment 3: solid form vitamins in 2 ml ethanol, 1,000,000 IU A, 100,000 IU D, 1000 IU E, 1 ml per nostril, time 0). In addition, the “Average Serum Level - Vitamin E” value came out at 2.5 micrograms/ml in data set [2] (Treatment 4: vitamin E, A, D oils, Tween 80, nicotinic acid, Carbopol 934P, Pemulen TR2, NaOH, water, 1000 IU E, 1 ml per nostril, 6 Hours); 2.7 micrograms/ml in data set [2] (Treatment 4: vitamin E, A, D oils, Tween 80, nicotinic acid, Carbopol 934P, Pemulen TR2, NaOH, water, 1000 IU E, 1 ml per nostril, 24 Hours); 2.7 micrograms/ml in data set [2] (Treatment 4: vitamin E, A, D oils, Tween 80, nicotinic acid, Carbopol 934P, Pemulen TR2, NaOH, water, 1000 IU E, 1 ml per nostril, time 0); 2.0 micrograms/ml in data set [2] (Treatment 5: vitamin E, A, D oils, Tween 80, Pemulen TR2, NaOH, water, 1000 IU E, 1 ml per nostril, 6 Hours); 2.2 micrograms/ml in data set [2] (Treatment 5: vitamin E, A, D oils, Tween 80, Pemulen TR2, NaOH, water, 1000 IU E, 1 ml per nostril, 24 Hours); 2.1 micrograms/ml in data set [2] (Treatment 5: vitamin E, A, D oils, Tween 80, Pemulen TR2, NaOH, water, 1000 IU E, 1 ml per nostril, time 0). For the same substance, the “course of serum level of Vitamin E” value in data set [2] (Treatment #3, nasal (FIG. 9, curve 920)) is on record as “increased from 6 hours to 24 hours post-dosing”; in data set [2] (Treatment #5, nasal (FIG. 9, curve 910)), “increased from 6 hours to 24 hours post-dosing”.
